Test results: patent US20230241164A1, “C-Type Natriuretic Peptides and Methods Thereof in Treating Cancer” (PHARMAIN CORPORATION, priority 2020, published 2023)
Values joined by “and” are separate entries in the source; they are usually repeats but may differ in a detail not shown here. Equal values may be shown once. Numbered stars: 1 amine (or outer) side, 2 acyl side, 3 side chain; on linkers, the order of the positions; unused ones are H or OH. Bridge positions count the residues as written; N and C are the ends. Square brackets hold non-standard residues; d marks the D form. Peptide text beside a SMILES is read from it. * marks the point of attachment. C18 diacid = O=C(O)CCCCCCCCCCCCCCCCC(=O)*; γGlu = O=C(O)[C@H](CCC(=O)[*:2])N[*:1]; Aad = N[C@@H](CCCC(=O)O)C(=O)O; AEEA = NCCOCCOCC(=O)O

What was measured:
[1] = system: TRAMPC-1 mouse prostate cancer cells; test: Prostate cancer subcutaneous model, treatment from day 6, tumor size; format: in vivo, mice; conditions: Anti-CD8 Ab 5 mg/kg i.p.
Experimental: In this study, male C57BL/6J mice (6 weeks old, male, n=10) were purchased from Kyodo (Saga, Japan) and maintained under a 12-hour light/12-hour dark cycle with free access to water and standard mouse diet (MF diet; Oriental Yeast Co., Ltd. Tokyo Japan). Mice were implanted with TRAMPC-1 mouse prostate cancer cells (1,000,000 cells/mouse) (ATCC, Manassas, Va.) in the subcutaneous. From the 6th day (early stage of tumor growth), mice were treated with a bolus dose of dCNP (described in Example 1) (0.3 mg/kg s.c. or 1.0 mg/kg s.c.) with or without Anti-CD8 antibody (a-CD8; 5 mg/Kg i.p.; BioX cells, West Lebanon, N.H.) in buffer containing Methionine 100 mM (Tokyo Chemical Industry Co., Ltd., Tokyo, Japan); Sucrose 100 mM (Tokyo Chemical Industry Co., Ltd.); Histidine 50 mM (Tokyo Chemical Industry Co., Ltd.); in H2O (Otsuka Pharmaceutical, Tokushima, Japan)], Docetaxel (1 mg/kg i.p.) in Saline with or without Anti-CD8 Ab (5 mg/kg i.p.) as reference control, and or with Phosphate buffered saline (PBS) alone via i.p. as control. Mice were treated total of 14 days (5 days of once daily, 2 days of rest, 5 days of once-daily treatment and 2 days rest). Anti-CD8 Ab (a-CD8) was administered on −2, 1, 4, 7, 10 and 13th day. Tumor sizes were measured with caliper. Statistical analysis was performed by Student t-tests by using GraphPad Prism *P<0.0001 vs. Control or a-CD8 group (n=10). […]

[2] = system: TRAMPC-1 mouse prostate cancer cells; test: Prostate cancer subcutaneous model, treatment from day 19, tumor size; format: in vivo, mice
Experimental: (§1) In this study, male C57BL/6J mice (6 weeks old, male, n=10) were purchased from Kyodo (Saga, Japan) and maintained under a 12-hour light/12-hour dark cycle with free access to water and standard mouse diet (MF diet; Oriental Yeast Co., Ltd. Tokyo Japan). Mice were implanted with TRAMPC-1 mouse prostate cancer cells (1,000,000 cells/mouse) (ATCC, Manassas, Va.) in the subcutaneous. From the 19th day (averaged tumor size was 70 mm3), mice were treated with a bolus dose of long acting CNP derivative or dCNP (described in Example 1) (0.3 mg/kg s.c. or 1.0 mg/kg s.c.) in buffer [Methionine 100 mM (Tokyo Chemical Industry Co., Ltd., Tokyo, Japan); Sucrose 100 mM (Tokyo Chemical Industry Co., Ltd.); Histidine 50 mM (Tokyo Chemical Industry Co., Ltd.); in H2O (Otsuka Pharmaceutical. Tokushima, Japan)], Docetaxel (DTX1 mg/kg i.p.) in Saline, all with or without anti-CD8 (5 mg/Kg i.p.; BioX cell; West Lebanon, N.H.) or Phosphate buffered saline (PBS) alone via i.p. All Docetaxel groups were used as mechanism of action comparator chemotherapeutic agent. Mice were treated total of two weeks (5 days of once daily, 2 days of rest, 5 days of once-daily treatment and 2 days rest). Anti-CD8 Ab was administered every 3 days starting day 19th. Tumor sizes were measured with caliper.

[3] = system: TRAMPC-1 mouse prostate cancer cells; test: Gene expression within prostate tumor (quantitative RT-PCR); format: in vivo, mice; conditions: tumor harvested at day 30
Experimental: as §1, with “Pharmaceutical,” for “Pharmaceutical.”, “(DTX 1” for “(DTX1”, “for 2” for “total of two”, “was harvested at day 30 and extracted RNA, then Quantitative RT-PCR was performed; error bars are SEM. Statistical analysis was performed by Student t-tests by using GraphPad Prism *P<0.05 or **P<0.01 vs. Control group (n=3-6).” for “sizes were measured with caliper.”

[4] = Pharmacokinetic study of dCNP-s1 and dCNP-s2: plasma CNP after subcutaneous bolus in CD-1 mice; format: in vivo; conditions: subcutaneous bolus 2.0 mg/Kg, FIG. 30
Experimental: For this pharmacokinetic study, all animals (mice) for this study were maintained under a 12-hour light/12-hour dark cycle with free access to water and standard mouse diet (Lab Pico Rodent #5053; Animal Specialties, Woodburn, Oreg.). Male CD-1 mice (6-8 weeks old; Charles River, Hollister, Calif.) were treated with 2.0 mg/Kg of CNP derivative s1 (dCNP-s1; PharmaIN Corp, Bothell, Wash.), and CNP derivative s2 (dCNP-s2: PharmaIN Corp, Bothell, Wash.) via subcutaneous bolus administration between the shoulder blades.

[5] = Immune activation in normal healthy mice (blood FACS, spleen gene expression); format: in vivo; conditions: normal healthy mice, 0.1, 0.3, 1.0 mg/kg s.c. day 1-5
Experimental: In this study, male C57BL/6J mice (6 weeks old n=3) were purchased from Kyodo (Saga, Japan) and maintained under a 12-hour light/12-hour dark cycle with free access to water and standard mouse diet (MF diet; Oriental Yeast Co., Ltd. Tokyo Japan). Mice were treated with a bolus dose of 0, 0.1, 0.3, and 1.0 mg/kg CNP derivative or dCNP (described in Example 1) in buffer (Methionine 100 mM (Tokyo Chemical Industry Co., Ltd., Tokyo, Japan), sucrose 100 mM (Tokyo Chemical Industry Co., Ltd.), histidine 50 mM (Tokyo Chemical Industry Co., Ltd.); in H2O (Otsuka Pharmaceutical, Tokushima, Japan)) or buffer alone (for control group). Administration is by bolus subcutaneous injection under isoflurane anesthesia, at day 1, 2, 3, 4, and 5. Blood was harvested on day 5 under the isoflurane vapor and plasma were obtained by added EDTA and red blood cells were removed by pharma lyse (BD, Franklin Lakes, N.J.). Cells were analyzed by FACS (BD, Franklin lakes, NJ). The spleen was harvested on day 5 under isoflurane vapor, then placed in the Tri reagent (Cosmobio, Tokyo, Japan) for further analysis. Statistical analysis was performed by Student t-tests by using GraphPad Prism *P<0.05 vs. Control. **P<0.01 vs Control (n=5).

[6] = Pharmacokinetic study: plasma CNP (ELISA) after subcutaneous bolus in CD-1 mice; conditions: subcutaneous 2.0 mg/Kg, FIG. 1A
Experimental: All test articles were formulated or dissolved in 100 mM sorbitol, 100 mM methionine, 20 mM histidine, pH 6.0. […] Blood samples were processed in K2EDTA tubes to obtain plasma. Plasma was analyzed by commercially available CNP ELISA kit from Phoenix Pharmaceuticals (cat #EKE-012-03). […] [SEQ ID NO. 6]. […] The details of the polymer are described in Castillo et al., Pharm. Res., (2012) 29(1); p 306-18, herein incorporated by reference in its entirety.
Error bars represent standard deviation of n=5 plasma samples.

[7] = bolus injection, healthy human volunteers; cited from earlier work
[8] = species not stated; cited from earlier work

## CC(=O)O[C@@]12CO[C@@H]1C[C@H](O)[C@@]1(C)C(=O)[C@H](O)C3=C(C)[C@@H](OC(=O)[C@H](O)[C@@H](NC(=O)OC(C)(C)C)c4ccccc4)C[C@@](O)([C@@H](OC(=O)c4ccccc4)[C@H]21)C3(C)C [Docetaxel]
[1]
  tumor growth suppressing effect in the presence of Anti-CD8 antibody: remained
[2]; anti-CD8 5 mg/Kg i.p.
  anti-tumor effect with anti-CD8 antibody: could not be neutralized by Anti-CD8
[3]
  Ang 2 gene expression within the prostate tumor: not
  TGFβ gene expression within the prostate tumor: not
  alpha-smooth muscle actin (α-SMA) gene expression within the prostate tumor: not

## CC[C@H](C)[C@@H]1NC(=O)[C@H](CCCNC(=N)N)NC(=O)[C@H](CC(=O)O)NC(=O)[C@H](CC(C)C)NC(=O)[C@H](CCCCN)NC(=O)[C@H](CC(C)C)NC(=O)CNC(=O)[C@H](Cc2ccccc2)NC(=O)[C@@H](NC(=O)CNC(=O)COCCOCCNC(=O)COCCOCCNC(=O)CCCCCCCCCCCCCCCCC(=O)O)CSSC[C@@H](C(=O)O)NC(=O)CNC(=O)[C@H](CC(C)C)NC(=O)CNC(=O)[C@H](CO)NC(=O)[C@H](CCCC(N)=O)NC(=O)[C@H](CO)NC(=O)CNC1=O [dCNP-s1] ({C18 diacid-AEEA-AEEA}-GCFGLKLDRIGS[Aad](NH2)SGLGC-OH; disulfide 2-18)
[4]
  blood level of CNP relative to native CNP at similar weight/Kg dose: 10 fold

## CC[C@H](C)[C@@H]1NC(=O)[C@H](CCCNC(=N)N)NC(=O)[C@H](CC(=O)O)NC(=O)[C@H](CC(C)C)NC(=O)[C@H](CCCCN)NC(=O)[C@H](CC(C)C)NC(=O)CNC(=O)[C@H](Cc2ccccc2)NC(=O)[C@@H](NC(=O)CNC(=O)COCCOCCNC(=O)COCCOCCNC(=O)CC[C@H](NC(=O)CCCCCCCCCCCCCCCCC(=O)O)C(=O)O)CSSC[C@@H](C(=O)O)NC(=O)CNC(=O)[C@H](CC(C)C)NC(=O)CNC(=O)[C@H](CO)NC(=O)[C@H](CCCC(N)=O)NC(=O)[C@H](CO)NC(=O)CNC1=O [dCNP-s2] ({C18 diacid-γGlu-AEEA-AEEA}-GCFGLKLDRIGS[Aad](NH2)SGLGC-OH; disulfide 2-18)
[4]
  blood level of CNP relative to native CNP at similar weight/Kg dose: 10 fold

## CCCCCCCCCCCCCCCCCC(=O)N[C@@H](CCCCN)C(=O)N[C@@H](CCCCN)C(=O)N[C@@H](CCCCN)C(=O)N[C@@H](CCCCN)C(=O)NCC(=O)NCC(=O)NCC(=O)NCC(=O)N[C@@H](CC(C)C)C(=O)N[C@@H](CO)C(=O)N[C@@H](CCCCN)C(=O)NCC(=O)N[C@H]1CSSC[C@@H](C(=O)O)NC(=O)CNC(=O)[C@H](CC(C)C)NC(=O)CNC(=O)[C@H](CO)NC(=O)[C@H](CCSC)NC(=O)[C@H](CO)NC(=O)CNC(=O)[C@H]([C@@H](C)CC)NC(=O)[C@H](CCCNC(=N)N)NC(=O)[C@H](CC(=O)O)NC(=O)[C@H](CC(C)C)NC(=O)[C@H](CCCCN)NC(=O)[C@H](CC(C)C)NC(=O)CNC(=O)[C@H](Cc2ccccc2)NC1=O [dCNP]
[2]; TRAMPC-1 tumor bearing mice
  lethality: less lethal than cytotoxic chemotherapeutic agent (Docetaxel)
[5]
  cytotoxic (CD8) T-cells in blood: increase

## CC[C@H](C)[C@@H]1NC(=O)[C@H](CCCNC(=N)N)NC(=O)[C@H](CC(=O)O)NC(=O)[C@H](CC(C)C)NC(=O)[C@H](CCCCN)NC(=O)[C@H](CC(C)C)NC(=O)CNC(=O)[C@H](Cc2ccccc2)NC(=O)[C@@H](NC(=O)CNC(=O)[C@H](CCCCN)NC(=O)[C@H](CO)NC(=O)[C@H](CC(C)C)NC(=O)CN)CSSC[C@@H](C(=O)O)NC(=O)CNC(=O)[C@H](CC(C)C)NC(=O)CNC(=O)[C@H](CO)NC(=O)[C@H](CCSC)NC(=O)[C@H](CO)NC(=O)CNC1=O [native CNP]
[6]
  plasma CNP: low plasma level
[7]
  heart rate: significant increase
  systolic and diastolic blood pressure: significant decrease
[8]
  half-life: 2 to 13 min and 2 min
